We go through one compound from publication PMC10992699, “Comparative structure activity and target exploration of 1,2-diphenylethynes in Haemonchus contortus and Caenorhabditis elegans” (International Journal for Parasitology: Drugs and Drug …, 2024).

One series has as its system H. contortus xL3s. Put plainly: H. contortus xL3 motility dose-response assay. Format: cell-based, Haemonchus contortus. On the procedure:
Immediately prior to use in assays, H. contortus L3s were exsheathed via exposure to 0.15 % (v/v) sodium hypochlorite for 20 min at 38 °C ([Preston et al., 2015]), achieving an exsheathment rate of 90 %. The larvae were then immediately washed five times with 50 mL of sterile physiological saline (pH 7.0) by centrifugation at 2000×g (5 min) and resuspended (at a concentration of 300 xL3s per 50 μL) in sterile (autoclaved) lysogeny broth (LB; cf. [Bertani, 1951]; [Taki et al., 2021b]), supplemented with final concentrations of 100 IU/mL of penicillin, 100 μg/mL of streptomycin and 0.25 μg/mL of amphotericin B (Fungizone®, cat. No. 15240-062, Gibco, Thermo Fisher Scientific, Waltham, MA, USA); this supplemented LB was designated LB*.
The dose-response assay for H. contortus followed a well-established protocol ([Taki et al., 2021b]); it was employed to evaluate the potency of hit compounds against this nematode. Test compounds were assessed individually for an effect on the motility of xL3s (10-point, 2-fold serial dilution in LB*, 40 μM–[…]). […] A solution of LB* was used as a negative control. The test compounds and positive control compounds (monepantel and moxidectin) were arrayed in triplicate across individual flat-bottom 96-well microplates, with six wells on each plate containing the negative control. Added to each well were 300 xL3s of H. contortus in 50 μL of LB* to give a final volume of 100 μL. Plates were then placed in a CO2 incubator (10 % (v/v) CO2, 38 °C, >90 % humidity; Forma, model no. 311, Thermo Fisher Scientific, USA). […] Over a period of 15 min, disturbance of an infrared beam in individual wells was recorded as an ‘activity count’. Raw ‘activity counts’ for individual wells were normalised to the negative-controls. The compound concentrations were log10-transformed and fitted using a variable slope four-parameter equation, using the ordinary least squares fit model, employing Prism (v.9.1.0 GraphPad Software, San Diego, CA, USA). Larval development was established at 168 h of incubation with compound, as described previously ([Preston et al., 2015]). The phenotypes of larvae were examined using a microscope ([Preston et al., 2015]) and recorded.

The nature of series [1]: HepG2 cytotoxicity (CellTiter-Glo). It is filed as cell-based. To be noted: human, HepG2 cells, read-out: half-maximal cytotoxic concentration (CC50). As to the method:
The cytotoxicity of UMW-9729 and six key derivatives (12, 14, 15, 16, 18 and 25) on human hepatoma (HepG2) cells was evaluated as described previously ([Gilson et al., 2017]). In short, HepG2 cells were first cultured (in an incubator at 5 % (v/v) CO2, 37 °C, >90 % humidity) in Dulbecco's modified Eagle's medium (DMEM) supplemented with 5 % foetal bovine serum (FBS). Test compounds were serially-diluted (10-points, 2-fold serial dilution, top concentration of 50 μM) in DMEM + 10 % FBS, adjusted to a 0.5 % DMSO concentration and arrayed across a 384-well plate. Bortezomib (10 μM) was used as a positive control; 0.5 % DMSO was used as a negative control. HepG2 cells (1 × 10^3 cells per 50 μL of DMEM + 10 % FBS) were then seeded into wells of the assay plate; plates were the incubated (5 % (v/v) CO2, 37 °C, >90 % humidity) for 48 h. Cell proliferation was subsequently determined using CellTiter-Glo (Promega) and normalised using the negative-controls to calculate as a percentage. All compounds were tested in duplicate. The half-maximal cytotoxic (CC50) values were calculated by the Dotmatics (v.5.3) and Spotfire (v.7.11.1) software using a nonlinear regression four-parameter fit analysis.

Another series concerns the target T1, PGP-1 (Caenorhabditis elegans, UniProt P34712).
T1 construct: from tissue; host or cells: whole-worm lysate of C. elegans N2 (young adults / L4s), NP-40 extract
Description: Thermal proteome profiling (TPP). Format: binding. As to conditions: compound 50 μM, C. elegans lysate, 37-67 °C.

The next series deals with T2, B0361.6 (Caenorhabditis elegans, UniProt Q10950).
T2 construct: from tissue; host or cells: whole-worm lysate of C. elegans N2 (young adults / L4s)
T2 sequence (Q10950 whole entry): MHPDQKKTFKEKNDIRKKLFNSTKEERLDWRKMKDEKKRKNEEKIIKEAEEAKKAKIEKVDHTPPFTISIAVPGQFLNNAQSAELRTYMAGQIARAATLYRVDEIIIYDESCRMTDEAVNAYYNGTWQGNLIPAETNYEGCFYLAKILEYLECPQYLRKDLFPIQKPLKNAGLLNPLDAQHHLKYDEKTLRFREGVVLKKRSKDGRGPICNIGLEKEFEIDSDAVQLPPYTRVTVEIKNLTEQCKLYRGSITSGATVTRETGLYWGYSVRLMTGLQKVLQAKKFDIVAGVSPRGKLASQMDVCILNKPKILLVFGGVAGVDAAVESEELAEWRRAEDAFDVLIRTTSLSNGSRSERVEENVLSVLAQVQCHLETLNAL
Put plainly: Thermal proteome profiling (TPP). It is filed as binding. To be noted: compound 50 μM, C. elegans lysate, 37-67 °C.

A further series has as its target T3, UNC-11 (Caenorhabditis elegans, UniProt Q9XZI6).
T3 construct: from tissue; host or cells: whole-worm lysate of C. elegans N2 (young adults / L4s)
Put plainly: Thermal proteome profiling (TPP). Format: binding. To be noted: compound 50 μM, C. elegans lysate, 37-67 °C.

The next series relates to C. elegans young adults. More on the design: method as in Taki et al., 2021a. To be noted: previous HitFinder library screen, ref Taki et al., 2021a, cited from earlier work.

Each structure is given as a SMILES string. Some results are limits rather than exact numbers.

T3 sequence (Q9XZI6 whole entry): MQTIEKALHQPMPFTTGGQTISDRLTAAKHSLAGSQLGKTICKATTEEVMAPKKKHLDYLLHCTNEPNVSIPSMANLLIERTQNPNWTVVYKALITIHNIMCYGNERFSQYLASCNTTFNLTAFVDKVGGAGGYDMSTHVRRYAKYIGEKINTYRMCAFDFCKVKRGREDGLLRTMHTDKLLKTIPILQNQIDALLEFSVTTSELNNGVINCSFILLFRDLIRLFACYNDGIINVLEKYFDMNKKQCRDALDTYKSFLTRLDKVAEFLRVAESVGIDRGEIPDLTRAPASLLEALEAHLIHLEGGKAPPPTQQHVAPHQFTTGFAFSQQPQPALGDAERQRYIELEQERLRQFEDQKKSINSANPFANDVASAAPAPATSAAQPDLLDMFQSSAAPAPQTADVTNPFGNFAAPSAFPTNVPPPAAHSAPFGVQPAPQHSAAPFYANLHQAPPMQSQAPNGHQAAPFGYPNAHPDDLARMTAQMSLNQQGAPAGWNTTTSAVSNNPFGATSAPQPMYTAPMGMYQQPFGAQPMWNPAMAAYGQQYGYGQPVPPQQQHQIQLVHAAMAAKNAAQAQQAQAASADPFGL
T1 sequence (P34712 whole entry): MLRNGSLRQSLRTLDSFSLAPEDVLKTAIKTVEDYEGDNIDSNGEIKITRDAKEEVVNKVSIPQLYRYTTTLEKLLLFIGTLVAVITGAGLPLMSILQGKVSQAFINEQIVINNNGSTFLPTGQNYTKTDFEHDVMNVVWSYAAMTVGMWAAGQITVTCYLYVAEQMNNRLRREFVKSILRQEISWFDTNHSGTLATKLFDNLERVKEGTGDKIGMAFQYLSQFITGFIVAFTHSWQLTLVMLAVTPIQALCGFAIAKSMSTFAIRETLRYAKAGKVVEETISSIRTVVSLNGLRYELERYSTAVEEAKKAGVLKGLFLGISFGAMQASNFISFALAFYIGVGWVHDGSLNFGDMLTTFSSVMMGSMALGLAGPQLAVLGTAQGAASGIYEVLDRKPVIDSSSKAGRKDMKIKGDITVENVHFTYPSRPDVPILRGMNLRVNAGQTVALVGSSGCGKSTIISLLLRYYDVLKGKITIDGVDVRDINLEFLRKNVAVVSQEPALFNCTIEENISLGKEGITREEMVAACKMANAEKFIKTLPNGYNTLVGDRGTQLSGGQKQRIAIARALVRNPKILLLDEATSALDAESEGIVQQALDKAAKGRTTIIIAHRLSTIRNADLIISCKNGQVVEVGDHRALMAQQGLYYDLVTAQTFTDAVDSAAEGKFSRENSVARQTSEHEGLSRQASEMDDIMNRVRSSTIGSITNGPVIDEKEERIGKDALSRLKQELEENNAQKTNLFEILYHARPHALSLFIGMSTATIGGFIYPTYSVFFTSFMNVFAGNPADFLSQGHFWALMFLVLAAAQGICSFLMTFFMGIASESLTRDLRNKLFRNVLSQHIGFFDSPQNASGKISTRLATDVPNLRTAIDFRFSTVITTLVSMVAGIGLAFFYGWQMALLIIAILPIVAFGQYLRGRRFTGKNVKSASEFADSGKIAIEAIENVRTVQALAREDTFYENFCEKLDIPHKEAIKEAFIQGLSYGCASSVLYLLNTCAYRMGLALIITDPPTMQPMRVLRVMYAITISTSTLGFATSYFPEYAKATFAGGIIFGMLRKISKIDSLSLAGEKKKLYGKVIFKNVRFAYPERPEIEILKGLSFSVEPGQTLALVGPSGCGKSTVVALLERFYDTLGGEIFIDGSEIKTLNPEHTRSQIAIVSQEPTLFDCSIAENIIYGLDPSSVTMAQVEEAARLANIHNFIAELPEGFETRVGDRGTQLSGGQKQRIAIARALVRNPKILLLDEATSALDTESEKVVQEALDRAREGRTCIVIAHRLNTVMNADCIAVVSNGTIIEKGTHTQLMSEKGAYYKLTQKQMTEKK

For the compound `C(#Cc1ccc(-c2ccn[nH]2)cc1)c1ccccc1` [UMW-9729], the IC50 is 6.7 ± 0.4 µM in the series with H. contortus xL3s (Haemonchus contortus, 90 h, xL3s, 90 h incubation (table title), three independent assays in triplicate, read-out: Worm motility IC50 ± SD, H. contortus xL3s) and 5.6 µM in the series on C. elegans young adults (read-out: half-maximal inhibitory concentration (IC50), motility of young adults of C. elegans). Also, in the series on H. contortus xL3s (ratio of xL3 motility IC50 to moxidectin), the “fold more active than moxidectin, H. contortus larvae” value is ~3 fold. Further, the CC50 at 48 h in series [1] was > 40 µM. The figures for the F-statistic on PGP-1 (NPARC), on B0361.6 (NPARC) and on UNC-11 (NPARC) were 27.4, 24.2 and 23.0, respectively. Also, the “thermal stability of protein in the presence of compound” value on PGP-1, at B0361.6 and at UNC-11 was “stabilised” in each case. Further, the “maximum motility inhibition, young adults of C. elegans” value with C. elegans young adults was 88.9%.
